Consider three molecules from patent EP0308781A2, “Antimycotic preparations” (BAYER AG, priority 1987, dated 1989).

This experiment concerns Candida-Zellen. The experiment can be described thus: Antimycotic in vivo efficacy (oral) in mouse candidosis. The following applies: for Wirkung: mice infected i.v. with 1 - 2 x 10^6 Candida cells, oral treatment with 10 - 100 mg/kg each, one hour before and seven hours after infection, survivors on day 6 p.i. The arrangement: species or system Mäuse vom Typ SPF-CF1; key to Wirkung: + + + + +: sehr gute Wirkung = 90 % Überlebende am 6.Tag.p.i.; + + + +: gute Wirkung = 80 % Überlebende am 6.Tag.p.i.; + + +: Wirkung = 60 % Überlebende am 6.Tag.p.i.; + +: schwache Wirkung = 40 % Überlebende am 6.Tag.p.i.; +: Spur Wirkung = unter 40 % Überlebende am 6. Tag p.i.; k.W.: kein Unterschied zur unbehandelten Infektionskontrolle. As for the experimental part: Antimykotische in-vivo-Wirksamkeit (oral) bei Mäusecandidose
Mäuse vom Typ SPF-CF1 wurden intravenös mit […] logarithmisch wachsenden Candida-Zellen, die in physiologischer Kochsalzlösung suspendiert werden, infiziert. Eine Stunde vor und sieben Stunden nach der Infektion werden die Tiere mit jeweils 10 - 100 mg/kg Körpergewicht der Präparate oral behandelt.
Unbehandelte Tiere starben 3 bis 6 Tage post infektionem. Die Überlebensrate am 6.Tag post infektionem betrug bei unbehandelten Kontrolltieren etwa 5 %.

SMILES strings stand for the structures.

Take `OC(Cn1cncn1)(c1ccccc1)C1(F)CC1` (stereo not shown) [(B)]: the Wirkung result is listed as “k.W”.
Regarding `OC(Cc1ccc(F)cc1)(Cn1cncn1)C1(Cl)CC1` (stereo not shown) [(I-1), 1-(4-Fluorphenyl)-2-(1-chlor-cyclopropyl)-3-(1,2,4-triazol-1-yl)-propan-2-ol], the Wirkung result was “+ + + + + (sehr gute Wirkung = 90 % Überlebende am 6.Tag.p.i.)”. For the same molecule, the “Wirkung (comparison with known compounds)” value (oral, mouse candidosis, statement in words, compared with (A) and (B)) is reported as “bessere Wirkung”.
In the case of `OC(Cn1cncn1)(c1ccc(Cl)cc1)C1(F)CC1` (stereo not shown) [(A)], the Wirkung entry is recorded as “k.W”.
